“Also recorded” adds a separate entry of the source.
How the values were obtained:
[1] = system: hirulog-like peptide (HLP)
[2] = Activated partial thromboplastin time (aPTT) in rats; type: in vivo; conditions: for aPTT (second): mean±SD, n=4
Protocol: Quantitative thrombin time (QTT) and activated partial thromboplastin time (aPTT): Plasma levels of hirulog-1 were estimated using QTT as previously described (Safian R D et al, 1990). Synthesized hirulog-1 (>90% of purity) was used as standard. The levels of aPTT in plasma were analyzed using a MLA 1000C Coagamate XM system in Haematology Laboratory, Health Sciences Centre, Winnipeg.
(§1) The levels of aPTT in plasma were analyzed using MLA 1000C Coagamate XM system in Haematology Laboratory, Health Sciences Centre, Winnipeg. For the evaluation of bleeding time, 1 mm of tail tip was removed using a razor blade. Resultant wound was gently blotted with filter paper immediately after the cut and each 30-second thereafter until bleeding stopped. Periods between cutting and no blood blotted onto filter paper were defined as bleeding time (Ishiwata S et al, 1997, 20).

[3] = human, in vivo; cited from earlier work
[4] = Tail bleeding time in rats; type: in vivo; conditions: for tail bleeding time during treatment versus control or basal levels: i.v. infusion
Protocol: as §1

[5] = Induction of antibodies in rabbits; conditions: rabbit, in vivo
Protocol: Relationship between HLP concentrations and vascular response. The relationship between plasma concentrations and the anti-restenosis effect of HLP is analysed. Polyclonal antibodies against HLP-KLH conjugate were raised in rabbits by the applicants group. The antibodies specifically recognize HLP in plasma proteins using Western blotting analysis. A competitive immunoassay was developed to measure plasma levels of HLP. Relationship between the effect of HLP on restenosis and its blood concentrations is analysed, which helps evaluate the efficacy of HLP and the design of a proper regimen for HLP treatment to prevent restenosis.
Effect of HLP on immune reactions. Since HLP is a peptide, it potentially induces immune reactions. HLP is a weak antigen. […] The possibility of HLP induces immune reactions in rabbits has not been excluded. Blood is withdrawn four weeks or six months after angioplasty and treatment with HLP, its analogues or saline, and determine the levels of serum C-reactive protein (Clinical Chemistry). Antibodies against HLP in blood are detected by immunodiffusion. Allergic reaction to HLP is monitored during and after the treatment.

[6] = Haemorrhage, toxicity, liver and kidney function in rats; type: in vivo
[7] = aPTT in rabbits; type: in vivo; conditions: HLP treated rabbits
Protocol: (§2) Influence of HLP on coagulation and haemorrhage. The levels of aPTT and microvascular bleeding time is determined in atherosclerotic rabbits receiving HLP, heparin, hirulog-1 or saline. The effects of optimized HLP treatment on coagulation and haemorrhage is also be examined in a group of uninjured rabbits on regular diet (n=10). The levels of aPTT is determined in blood withdrawn at 15 minutes after the start of the infusions using MLA Coagamate XM system in Haematology Laboratory. Microvascular bleeding time is determined by bleeding from a cut on ear at 1 minutes after the initiation of infusion as previously described (Blajchman et al, 1979). Incidence of bleeding complications in rabbits with various treatments is recorded. Autopsy is applied to every animal, including unexpected death, to examine the sign of haemorrhage in various organs and tissues.
Restenosis is responsible for the 30-40% long term failure rate following coronary revascularization. Thrombin inhibitors have been considered as one type of potential drug for the prevention of restenosis. […] The experiment was designed to examine the effect of HLP on restenosis of carotid arteries in atherosclerostic rabbits. Right carotid arteries of male New Zealand rabbits were subjected to air dessication. […]

[8] = target: T1, α-thrombin (Homo sapiens, UniProt P00734); test: Inhibition of enzymatic activity of thrombin (spectrozyme substrate); type: biochemical; conditions: spectrozyme as substrate, relative to hirulog-1
T1 construct: using α-thrombin and spectrozyme (American Diagnostica Inc., Greenwich, Conn.) as a substrate for thrombin
From the text: HLP keeps the sequence of the active sites of hirulog-1. The amino-terminal tail of HLP contains a region which is homology to a distal portion of the extracellular domain of the thrombin receptor. This region of HLP is structurally distinct from hirulog-19-20 (or HLP20-31) which aims the anion binding exosite of thrombin (Carmeliet P et al, 1997). HLP provides double-site of inhibition on the binding of thrombin to the thrombin receptor, which can more effectively reduce the activation of the […] and the cellular effects of thrombin. In addition, the amino-terminal sequence of HLP can affect the interaction of the inhibitor with the active site of thrombin in a manner different from hirulog-1. This structural difference between HLP and hirulog-1 on their amino terminal can partially explain the lower inhibition of HLP on coagulation. The amino terminal of HLP can be slowly cleaved by thrombin after the formation of complex with thrombin as hirulog-1 (Buchanan M R et al, 1999), which prevents the complete consumption of thrombin.

[9] = Bleeding complications and side effects in rabbits; type: in vivo; conditions: HLP 0.8 mg/kg/h for four hours
Protocol: as §2
Impact of HLP on liver, kidney and myeloid functions. Peripheral blood is withdrawn before sacrifice from ear vein of normal or atherosclerotic rabbits with and without treatments for analysing complete blood counts, serum albumin, alanine transaminase and blood urea nitrogen (analysed in Dept of Clinical Chemistry) to determine the influence of HLP on liver, kidney and myeloid functions. HLP concentrations in blood is analysed to examine the relationship between blood concentrations and possible toxic effects of HLP. […]

[10] = system: baboon aortic SMC; test: Thrombin-induced 3H-thymidine incorporation assay; type: cell-based; conditions: thrombin 10 U/ml
Protocol: Baboon aortic SMCs (seed cells provided by Dr. A. W. Clowes, University of Washington, Seattle) were grown as previously described (Ishiwata S et al, 1999) and seeded in 12-well plates to sub-confluence. Sub-confluent cells were incubated with serum-free medium for 48 hours. Quiescent SMCs were stimulated with medium containing 1% fetal calf serum and 10 U/ml of thrombin in the absence and presence of HLP for 4 hours. The incubation was continued following the replacement of fresh medium supplemented with 10% serum in the absence of thrombin or its inhibitor for 14 hours. Finally, SMCs were incubated with 0.1 μCi/ml of 3H-thymidine (NEN, Boston, Mass.) in medium containing 10% of serum for 6 hours. At the end of the incubation, the cells were thoroughly washed with PBS then 5% ice-cold trichloroacetic acid, and harvested in 0.25 N NaOH (Safian R D et al, 1990). Radioactivity in aliquots of cell lysate was analyzed in scintillation counter. 3H-Thymidine incorporation was assessed by radioactivity in cell lysates following adjustment with cellular proteins in each well.

[11] = balloon injured rats, heparin 50 U/kg/h, hirulog-1 1 mg/kg/h, HLP 1.6 mg/kg/h [HLP(1.6)], 5 minutes after start of infusion
[12] = tail, heparin 50 U/kg/h, hirulog-1 1 mg/kg/h, HLP 1.6 mg/kg/h [HLP(1.6)], 10 minutes after initiation of infusion, mean±SD, n=4
[13] = rats, 6 months after HLP 1.6 mg/kg/h for 4 hours
[14] = rats, 6 months after HLP treatment

Sequence of hirulog-like peptide (HLP) (chain, as listed by the source): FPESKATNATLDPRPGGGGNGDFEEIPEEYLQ

α-thrombin
thrombin-induced 3H-thymidine incorporation in baboon aortic SMC [1]: Treatment with 20 µM HLP significantly reduced thrombin-induced increase in 3H-thymidine incorporation in SMC (p<0.05) compared to cells treated with thrombin only

Heparin [reference compound]
aPTT / coagulation activity during treatment versus control or basal levels ([2]; rat, in vivo, iv): greatly increased

hirudin
frequency of major bleeding [3]: 6%-7% | incidence of major bleeding complications at non-cranial sites [3]: 7%

CC[C@H](C)[C@H](NC(=O)[C@H](CCC(=O)O)NC(=O)[C@H](CCC(=O)O)NC(=O)[C@H](Cc1ccccc1)NC(=O)[C@H](CC(=O)O)NC(=O)CNC(=O)[C@H](CC(N)=O)NC(=O)CNC(=O)CNC(=O)CNC(=O)CNC(=O)[C@@H]1CCCN1C(=O)[C@H](CCCNC(=N)N)NC(=O)[C@@H]1CCCN1C(=O)[C@H](N)Cc1ccccc1)C(=O)N1CCC[C@H]1C(=O)N[C@@H](CCC(=O)O)C(=O)N[C@@H](CCC(=O)O)C(=O)N[C@@H](Cc1ccc(O)cc1)C(=O)N[C@@H](CC(C)C)C(=O)O [Hirulog-1, reference compound]
aPTT raised over basal levels ([2]; 1 minute after injection of 1 mg/kg, uninjured and balloon injured rats): 3- to 4 fold | aPTT (second) [2, 11]: 52.38 ± 2.84**+ second | prolongation of aPTT during infusion ([2]; heparin 50 U/kg/h, hirulog-1 1 mg/kg/h, 5 minutes after start of infusion): 2- to 3 fold | aPTT / coagulation activity during treatment versus control or basal levels ([2]; rats, i.v. infusion): significantly elongated | time after treatment beyond which aPTT was normalized ([2]; single injection of 1 mg/kg): > 30 min | aPTT versus basal levels ([2]; within 15 minutes after single injection of 1 mg/kg): higher than corresponding basal levels | tail bleeding time during treatment versus control or basal levels ([4]; rats): significantly prolonged; also recorded: significantly elongated | Bleeding time [4, 12]: 21.88 ± 1.55 min

CC[C@H](C)[C@H](NC(=O)[C@H](CCC(=O)O)NC(=O)[C@H](CCC(=O)O)NC(=O)[C@H](Cc1ccccc1)NC(=O)[C@H](CC(=O)O)NC(=O)CNC(=O)[C@H](CC(N)=O)NC(=O)CNC(=O)CNC(=O)CNC(=O)CNC(=O)[C@@H]1CCCN1C(=O)[C@H](CCCNC(=N)N)NC(=O)[C@@H]1CCCN1C(=O)[C@H](CC(=O)O)NC(=O)[C@H](CC(C)C)NC(=O)[C@@H](NC(=O)[C@H](C)NC(=O)[C@H](CC(N)=O)NC(=O)[C@@H](NC(=O)[C@H](C)NC(=O)[C@H](CCCCN)NC(=O)[C@H](CO)NC(=O)[C@H](CCC(=O)O)NC(=O)[C@@H]1CCCN1C(=O)[C@@H](N)Cc1ccccc1)[C@@H](C)O)[C@@H](C)O)C(=O)N1CCC[C@H]1C(=O)N[C@@H](CCC(=O)O)C(=O)N[C@@H](CCC(=O)O)C(=O)N[C@@H](Cc1ccc(O)cc1)C(=O)N[C@@H](CC(C)C)C(=O)N[C@@H](CCC(N)=O)C(=O)O [HLP]
antigenicity / induction of detectable antibodies in rabbits [5]: weak antigen | toxic effect in rats ([6]; previous experiments): does not cause evident toxic effect | alanine transaminase versus control group [6, 13]: No significant difference | blood urea nitrogen versus control group [6, 13]: No significant difference | liver and kidney functions [6, 14]: No significant change | haemorrhage / death from haemorrhage during infusion ([6]; rats, heparin 50 U/kg/hours, HLP 1.6-3.2 mg/kg/hours): did not cause haemorrhage | aPTT in rabbits versus saline controls [7]: did not significantly change; also recorded: not significantly prolonged | aPTT (second) ([2]; HLP 3.2 mg/kg/h [HLP(3.2)], 5 minutes after start of infusion): 19.80 ± 1.65++xx second | aPTT (second) [2, 11]: 20.80 ± 3.24++xx second | aPTT / coagulation activity during treatment versus control or basal levels ([2]; rats, i.v. infusion): close to that infused with saline; also recorded: did not cause haemorrhage, the elongation of aPTT; also recorded: not significantly different from vehicle controls; also recorded: did not significantly differ; also recorded: did not prolong aPTT or bleeding time; also recorded: did not significantly alter coagulation activity | Ki on the enzymatic activity of thrombin, compared with hirulog-1 [8]: two orders of magnitude greater; also recorded: two orders of magnitude higher | HLP treated rabbits that suffered from bleeding complications [9]: None | tail bleeding time 6 months after treatment versus controls [4, 14]: No significant change; also recorded: No significant difference | tail bleeding time during treatment versus control or basal levels ([4]; rats): did not cause haemorrhage, the elongation of aPTT or bleeding time; also recorded: not significantly different from vehicle controls; also recorded: did not prolong aPTT or bleeding time | Bleeding time (min) ([4]; tail, HLP 3.2 mg/kg/h [HLP(3.2)], 10 minutes after initiation of infusion, mean±SD, n=4): 16.50 ± 1.58+x min | Bleeding time (min) [4, 12]: 16.37 ± 1.55+x min

Thrombin
increase of 3H-thymidine incorporation [10]: 43%

— US7582602B2, “Hirulog-like peptide and gene therapy” (priority 2000, dated 2009)
